Laboratory results: patent US10308656B2, “Small molecule inhibitors of Ku70/80 and uses thereof” (ARIZONA BOARD OF REGENTS ON BEHALF OF THE UNIVERSITY OF …, priority 2015, dated 2019)
pIC50: −log10 of the molar value. “Also recorded” adds a separate entry of the source.

Legend:
[1] = biological target: Ku70/80 heterodimer-DNA interaction (Homo sapiens, UniProt P12956+P13010); test: Electrophoretic Mobility Shift Assay (EMSA) of Ku70/80 binding to a DNA substrate; conditions: for Disruption of Ku70/80-DNA interaction (disappearance of the band shift): compound at 100 μM in EMSA reaction
Chain of Ku70/80 heterodimer-DNA interaction (P12956 whole entry): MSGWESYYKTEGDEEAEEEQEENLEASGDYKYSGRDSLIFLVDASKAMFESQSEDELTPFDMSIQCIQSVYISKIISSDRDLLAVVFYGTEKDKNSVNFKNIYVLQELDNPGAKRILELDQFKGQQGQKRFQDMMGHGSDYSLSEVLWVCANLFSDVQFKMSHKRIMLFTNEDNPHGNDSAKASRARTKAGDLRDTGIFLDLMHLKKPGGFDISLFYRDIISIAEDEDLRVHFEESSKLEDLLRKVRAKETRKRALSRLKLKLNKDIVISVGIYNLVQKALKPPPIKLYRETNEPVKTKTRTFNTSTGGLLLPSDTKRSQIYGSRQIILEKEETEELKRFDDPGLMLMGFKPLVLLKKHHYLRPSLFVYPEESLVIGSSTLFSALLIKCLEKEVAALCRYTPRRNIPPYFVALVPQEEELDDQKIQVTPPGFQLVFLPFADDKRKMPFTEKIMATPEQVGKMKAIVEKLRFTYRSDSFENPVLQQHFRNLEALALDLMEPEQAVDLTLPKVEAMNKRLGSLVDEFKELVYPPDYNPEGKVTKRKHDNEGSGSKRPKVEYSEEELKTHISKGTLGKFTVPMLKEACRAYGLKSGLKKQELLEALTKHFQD
Chain of Ku70/80 heterodimer-DNA interaction (P13010 whole entry): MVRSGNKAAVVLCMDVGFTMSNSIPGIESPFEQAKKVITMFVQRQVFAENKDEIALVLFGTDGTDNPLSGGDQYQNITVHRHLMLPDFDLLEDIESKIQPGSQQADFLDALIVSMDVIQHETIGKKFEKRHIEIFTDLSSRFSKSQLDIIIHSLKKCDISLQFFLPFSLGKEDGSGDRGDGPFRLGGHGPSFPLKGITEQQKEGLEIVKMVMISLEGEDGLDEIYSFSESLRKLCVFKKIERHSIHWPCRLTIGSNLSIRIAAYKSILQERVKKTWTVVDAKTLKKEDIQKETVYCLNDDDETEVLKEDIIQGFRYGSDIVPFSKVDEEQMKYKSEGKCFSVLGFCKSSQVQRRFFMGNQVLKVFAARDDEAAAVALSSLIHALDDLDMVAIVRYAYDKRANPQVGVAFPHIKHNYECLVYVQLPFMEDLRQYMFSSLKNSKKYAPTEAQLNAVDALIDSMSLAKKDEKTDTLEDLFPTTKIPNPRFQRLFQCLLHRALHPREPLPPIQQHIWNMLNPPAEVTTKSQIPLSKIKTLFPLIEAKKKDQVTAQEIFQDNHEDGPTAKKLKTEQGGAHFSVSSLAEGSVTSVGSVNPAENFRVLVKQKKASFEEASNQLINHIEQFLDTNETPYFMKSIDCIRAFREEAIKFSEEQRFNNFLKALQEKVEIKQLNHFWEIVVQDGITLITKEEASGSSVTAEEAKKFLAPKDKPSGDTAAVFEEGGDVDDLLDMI
From the text: Next, the described ‘protomol’ was utilized as a guide to screen small molecule databases for potential inhibitors. Hits were sorted from highest to lowest docking scores and nine compounds were ultimately chosen for biological activity screening (see, Table 1). These compounds were commercially obtained and designated with a letter (A through H, and L). For initial activity screening experiments utilized an Electrophoretic Mobility Shift Assay (EMSA), in which a radioactively labeled artificial DNA substrate was incubated with a preparation of purified Ku70/80 protein, followed by non-denaturing gel electrophoresis. Interaction of Ku70/80 with DNA caused a measurable shift of the DNA band. […] Compounds C and L were further investigated for their ability to disrupt the Ku70/80 DNA interaction as well as Ku-dependent activation of the DNA-PKcs kinase.
Therefore, a two orders of magnitude range of serial dilutions of the compounds was added to the previously described EMSA reactions. Inhibition of Ku-DNA interaction in a straight forward dose-dependent manner by compound L alone was observed (FIG. 3B). In order to quantify the relative efficiency of Ku-DNA binding for each dose of Compound L, the intensity of the Ku-DNA bands in the EMSA assay was measured and normalized those values to a number between 0 and 100, where the value 0 represents a reaction where no Ku70/80 was present and the value 100 represents a reaction where no inhibitor was added. These normalized values were subsequently plotted against the corresponding concentrations of Compound L (FIG. 3B). A logarithmic trend line was added and equations were obtained to describe the dose-response curves of Compound L in the EMSA assay. […] IC50 values in this range are generally considered to be a viable starting point for lead-finding exploits.

[2] = biological target: DNA-PKCS kinase (Ku-dependent activation) (Homo sapiens, UniProt P12956+P13010); test: DNA-PKCS kinase activity assay, Ku70/80-dependent in vitro phosphorylation of a p53-based peptide substrate; type: biochemical; conditions: for Impairment of Ku-dependent activation of DNA-PKCS: in vitro
Chain of DNA-PKCS kinase (Ku-dependent activation) (P12956 whole entry): as the sequence (P12956 whole entry) above
Chain of DNA-PKCS kinase (Ku-dependent activation) (P13010 whole entry): as the sequence (P13010 whole entry) above
From the text: To further validate the Ku-inhibitory activity of Compound L, experiments examined its effects on Ku-dependent activation of the DNA-PKCS kinase. […] It is, however, a potent co-factor for the activation of other NHEJ enzymes, including DNA-PKCS (see, G. C. Smith, et al., Genes Dev., 13 (1999), pp. 916-934). It was therefore reasoned that disruption of the Ku-DNA interaction by Compound L should also diminish DNA-PKCS kinase activity. The DNA-PKCS kinase has multiple known downstream targets, including p53, Artemis, and DNA-PKCS itself (see, E. Weterings, et al., Cell Res., 18 (2008), pp. 114-124; G. C. Smith, et al., Genes Dev., 13 (1999), pp. 916-934). It is at present not entirely clear which targets are critical for the overall DNA repair response, but it is evident that the kinase domain of DNA-PKCS is indispensable. Experiments therefore quantified the kinase activity of a purified preparation of the DNA-PKCS protein in the presence of different concentrations of Compound L. Experiments measured the phosphorylation of a p53-based peptide substrate as an arbitrary reporter of DNA-PKCS kinase activity. The obtained in vitro DNA-PKCS kinase activities were subsequently normalized and plotted as a function of compound L concentration (FIG. 4A). Experiments observed a sharp dose-dependent inhibition of DNA-PKCS kinase activity. […] Therefore, both primary (EMSA) and secondary (DNA-PKCS activity) assays for the Ku-inhibitory potential of Compound L indicate an IC50 value in the lower micro-molar range.
This example compares the in vitro activity of several structural analogs of Compound L. This assay measures the effect of each compound on the in vitro activity of the DNA-PKCS kinase.

[3] = system: SF-767 glioblastoma cells; test: Radiation sensitization / cytotoxicity by MTS assay in glioblastoma cells; type: cell-based, human; conditions: for Sensitization to radiation therapy (RT): human glioblastoma multiforme (GBM) cells
Description: (§1) Consequently, this substance could have an effect on the efficiency of overall repair of DSBs. In order to examine this potential, experiments tested Compound L for its ability to potentiate the effects of ionizing radiation on two human cell lines: the glioblastoma cell line SF-767 (FIG. 5A), and an hTERT immortalized prostate epithelial (PrEC) cell line (see, R. Berger, et al., Cancer Res., 64 (2004), pp. 8867-8875) (FIG. 5B). Cultured cells were treated with either the compound as a single modality, ionizing radiation as a single modality or with a regimen of concurrent radiation and compound. Cell viability was measured after a six day recovery period by standard MTS assay and normalized to the untreated control (no compound or radiation). FIG. 5 presents the observed effects of each treatment modality in terms of percentage non-viable cells. The effects are plotted as a function of the compound's concentration in the culture medium.
(§2) As expected, experiments observed a clear, dose-dependent increase in non-viable cell population with increasing concentrations of Compound L (FIG. 5, red columns). This reflects the fundamental cytotoxicity of the compound under the chosen experimental conditions. In both cell lines, toxicity of Compound L stayed low (below 5% non-viability) up to 25 μM, after which an exponential increase in cytotoxicity was observed. […] In order to exclude the possibility that this phenomenon was caused by mere additive effects, experiments calculated the sum of the effects of the single modalities (FIG. 5, purple columns) and compared the obtained values with the effects of the combination treatments. By definition, synergism is present when the effect of the combination therapy (green columns) exceeds the sum of the effects of the single modalities (purple columns). In SF-767 cells, synergism was most clearly observed between 20 and 30 μM (FIG. 5A) and in immortalized PrEC cells synergism was present in the 20-35 μM range (FIG. 5B).
(§3) This is done by means of a standard MTS assay, measuring survival of human glioblastoma (SF767) or immortalized prostate epithelial (PrEC) cells 7 days after treatment with compounds and radiation therapy. […] The radiation-sensitizing potential of Compound L and JV761 is attributable to the ability of these compounds to suppress the activity of Ku70/80 in vivo.

[4] = system: DNA-PKCS SER2056 autophosphorylation in SF-767 cells; test: DNA-PKCS autophosphorylation assay (Western blot) after etoposide-induced DSBs; type: cell-based, human
From the text: In order to further examine the effects of Compound L on Ku-dependent activation of the DNA-PKCS kinase in vivo, experiments also exposed cultures of the human glioblastoma cell line SF-767 to increasing concentrations of Compound L. Upon induction of DSBs by etoposide, experiments quantified the levels of DNA-PKCS autophosphorylation at the SER2056 residue by means of Western blot analysis (FIG. 4B).

[5] = Radiation sensitization / cytotoxicity by MTS assay in glioblastoma cells; type: cell-based, human; conditions: human, SF-767 glioblastoma cells; SF-767, up to 25 μM, MTS after six day recovery; read-out: Non-viability (toxicity of compound as single modality)
Description: as §1, §2, §3

[6] = Radiation sensitization / cytotoxicity by MTS assay in prostate epithelial cells; type: cell-based, human; conditions: human, hTERT immortalized prostate epithelial (PrEC) cells; PrEC, up to 25 μM, MTS after six day recovery; read-out: Non-viability (toxicity of compound as single modality)
Description: as §1
(§4) As expected, experiments observed a clear, dose-dependent increase in non-viable cell population with increasing concentrations of Compound L (FIG. 5, red columns). […] In order to exclude the possibility that this phenomenon was caused by mere additive effects, experiments calculated the sum of the effects of the single modalities (FIG. 5, purple columns) and compared the obtained values with the effects of the combination treatments. […]

[7] = system: hTERT immortalized prostate epithelial (PrEC) cells; test: as above; type: cell-based, human; conditions: immortalized PrEC, concurrent compound and radiation, FIG. 5B
Description: as §1, §4

[8] = system: DNA double strand break (DSB) repair in glioblastoma cells (SF767); test: DSB repair after radiation by γ-H2AX phosphorylation; type: cell-based, human; conditions: 25 μM, post radiation
Description: This repair process is dependent on active Ku70/80 and the suppression of Ku-dependent DSB repair is further proof that Compound L inhibits Ku70/80 activity. The relative amount of DSBs is measured by counting the relative intensity of a canonical DSB marker: γ-H2AX.
Relative number of DSBs was measured by quantifying and normalizing γ-H2AX phosphorylation. […] Measured in human glioblastoma cells (SF767). Error bars represent standard error.

[9] = Pharmacokinetic profile after bolus IP injection, plasma levels by LC-MS; type: in vivo, nude mice; conditions: bolus IP 1, 3 or 5 mg/kg
Description: A bolus IP injection of Compound L was given at either 1, 3, or 5 mg/kg and plasma levels of Compound L were determined by LC-MS.

[10] = Tolerability and toxicity after bolus IP injection with two week follow-up; type: in vivo; conditions: mice

Row | Structure (SMILES) | Disruption of Ku70/80-DNA interaction (disappearance of the band shift) [1] | Impairment of Ku-dependent activation of DNA-PKCS [2] | Sensitization to radiation therapy (RT) [3] | pIC50 ([1]; EMSA titration, logarithmic trend line, read-out: IC50, dose needed to inhibit 50% of maximal Ku-DNA binding) | pIC50 ([2]; p53-based peptide substrate, logarithmic trend line) | Total DNA-PKCS level ([4]; Western blot) | DNA-PKCS autophosphorylation at the SER2056 residue ([4]; increasing doses, etoposide) | cytotoxicity at 6 days [5] [%] | Concentration range of synergistic radiation-sensitization ([3]; human cancer cells, 4Gy radiation, MTS 7 days after treatment, FIG. 9) [µM] | cytotoxicity at 6 days [6] [%] | Concentration range of synergism with radiation [7] [µM] | DSB repair kinetics (γ-H2AX) [8] | Plasma levels versus dose ([9]; LC-MS) | half-life ([9]; mouse, plasma, nude mice) [min] | Histopathology and comprehensive blood panels ([10]; after two weeks) | Signs of toxicity ([10]; bolus IP, acute and two week follow-up) | Tolerability ([10]; single bolus IP injection up to 5 mg/kg)
1 | COc1ccc(N2CCN(Cc3nc(N)nc(Nc4cccc(C)c4)n3)CC2)cc1 [Compound C, 4-[[4-(4-methoxyphenyl)piperazin-1-yl]methyl]-6-(m-tolyimino)-5H-1,3,5-triazin-2-amine] | disruption of the Ku70/80-DNA interaction; also recorded: screen positive for disruption of Ku70/80-DNA interaction; also recorded: capable of disrupting the binding of Ku to DNA | capable of disrupting the binding of Ku to DNA as well as the activation of DNA-PKCS | synergistically sensitize |  |  |  |  |  |  |  |  |  |  |  |  |  | 
2 | COc1ccc(CCNc2ncc3c(=O)n(-c4cccc(F)c4)c(=O)[nH]c3n2)cc1OC [Compound L, 7-[[2-(3,4-dimethoxyphenyl)ethyl]amino]-3-(3-fluorophenyl)pyrimido[4,5-d] pyrimidine-2,4(1H,3H)-dione] | disruption of the Ku70/80-DNA interaction; also recorded: screen positive for disruption of Ku70/80-DNA interaction; also recorded: capable of disrupting the binding of Ku to DNA | capable of disrupting the binding of Ku to DNA as well as the activation of DNA-PKCS | synergistically sensitize | 5.46 | 5.60 | not suppressed | sharp decline | < 5 | 20 to 30 | < 5 | 20 to 35 | significantly delayed | directly proportional to dose | ~90 | no abnormalities; also recorded: normal | did not reveal any acute toxicity; also recorded: did not reveal signs of toxicity | well tolerated
